ChEMBL document CHEMBL1201862, “PubChem BioAssay data set” (2004)
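Growth conditions: 96-well plates. Treatment: test compound, 48 hours, 5 concentrations. Analysis: linear interpolation between bracketing concentrations; unreached endpoints set to highest concentration. The concentration for 50% growth inhibition is given as GI50.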 Active and inactive are the calls of the source. Rule as the data show it: active = GI50 up to about 1.1 µM and inactive = higher.

Assays:
Assay in all cases: inhibition of tumour cell growth, NCI panel, 48 h
COLO 205 = test system: COLO 205
UACC-257 = test system: UACC-257
A549 = test system: A549
Hs-578T = test system: Hs-578T
A498 = test system: A498
SK-OV-3 = test system: SK-OV-3
786-0 = test system: 786-0
T47D = test system: T47D
SK-MEL-5 = test system: SK-MEL-5
MDA-MB-435 = test system: MDA-MB-435
SF-268 = test system: SF-268
UO-31 = test system: UO-31
HT-29 = test system: HT-29
SR = test system: SR
SK-MEL-28 = test system: SK-MEL-28
HL-60 = test system: HL-60
SF-295 = test system: SF-295
NCI-H460 = test system: NCI-H460
TK-10 = test system: TK-10

SMILES	GI50 (COLO 205)	GI50 (UACC-257)	GI50 (A549)	GI50 (Hs-578T)	GI50 (A498)	GI50 (SK-OV-3)	GI50 (786-0)	GI50 (T47D)	GI50 (SK-MEL-5)	GI50 (MDA-MB-435)	GI50 (SF-268)	GI50 (UO-31)	GI50 (HT-29)	GI50 (SR)	GI50 (SK-MEL-28)	GI50 (HL-60)	GI50 (SF-295)	GI50 (NCI-H460)	GI50 (TK-10)
c1nnc(NCNc2nncs2)s1	56.1 µM (inactive)	47.8 µM (inactive)	23.6 µM (inactive)	> 100 µM (inactive)	4.16 µM (inactive)	23.7 µM (inactive)	46.8 µM (inactive)	90.4 µM (inactive)	62.2 µM (inactive)	28.6 µM (inactive)	> 100 µM (inactive)	53.3 µM (inactive)	19.1 µM (inactive)	36.8 µM (inactive)	64.4 µM (inactive)	46.3 µM (inactive)	28.1 µM (inactive)	6.18 µM (inactive)	86.9 µM (inactive)
O=C(CCc1ccc(O)cc1)NCCc1ccc(O)cc1	> 100 µM (inactive)	> 100 µM (inactive)	> 100 µM (inactive)	> 100 µM (inactive)	> 100 µM (inactive)	> 100 µM (inactive)	> 100 µM (inactive)	> 100 µM (inactive)	> 100 µM (inactive)	> 100 µM (inactive)	> 100 µM (inactive)	> 100 µM (inactive)	> 100 µM (inactive)	> 100 µM (inactive)	> 100 µM (inactive)	> 100 µM (inactive)	> 100 µM (inactive)	> 100 µM (inactive)	> 100 µM (inactive)
N/C(=N/c1ccc(O)cc1)S(=O)(=O)O	> 100 µM (inactive)	> 100 µM (inactive)	> 100 µM (inactive)	> 100 µM (inactive)	> 100 µM (inactive)	> 100 µM (inactive)	> 100 µM (inactive)	> 100 µM (inactive)	> 100 µM (inactive)	> 100 µM (inactive)	> 100 µM (inactive)	> 100 µM (inactive)	> 100 µM (inactive)	> 100 µM (inactive)		> 100 µM (inactive)	> 100 µM (inactive)	> 100 µM (inactive)	> 100 µM (inactive)
OCC1OC(O)C(/N=C\c2ccc3c(c2)OCO3)C(O)C1O (stereo not drawn)	> 100 µM (inactive)	> 100 µM (inactive)	> 100 µM (inactive)	> 100 µM (inactive)	> 100 µM (inactive)	> 100 µM (inactive)	> 100 µM (inactive)	> 100 µM (inactive)	> 100 µM (inactive)	> 100 µM (inactive)	> 100 µM (inactive)	> 100 µM (inactive)	> 100 µM (inactive)	> 100 µM (inactive)	> 100 µM (inactive)	> 100 µM (inactive)	> 100 µM (inactive)	> 100 µM (inactive)	> 100 µM (inactive)
COC1CC2C=CC3C4OC2(/C(C)=C/C(C)C(C(C)O)OC1=O)C3C(O)C(C)C4OC(=O)c1ccc[nH]1 (stereo not drawn)	> 100 µM (inactive)	57.8 µM (inactive)	> 100 µM (inactive)	94 µM (inactive)	> 100 µM (inactive)		94.8 µM (inactive)	> 100 µM (inactive)	38.2 µM (inactive)	58.1 µM (inactive)	> 100 µM (inactive)	> 100 µM (inactive)	66.8 µM (inactive)	26.5 µM (inactive)	> 100 µM (inactive)	16.6 µM (inactive)	30.9 µM (inactive)	67 µM (inactive)	> 100 µM (inactive)
O=C1CCCCC1=C(I)I	15.3 µM (inactive)		37.8 µM (inactive)	63 µM (inactive)	20.5 µM (inactive)	22.6 µM (inactive)	16.5 µM (inactive)	15 µM (inactive)	17.9 µM (inactive)	19.1 µM (inactive)	19.4 µM (inactive)	16.7 µM (inactive)		16.1 µM (inactive)	17 µM (inactive)	4.49 µM (inactive)	24.8 µM (inactive)	21.4 µM (inactive)	
CC(=O)O[C@H]1C(=O)[C@@]2(C)[C@H]([C@H](OC(=O)c3ccccc3)[C@]3(O)C[C@H](OC(=O)[C@H](O)[C@@H](NC(=O)c4ccc(N)cc4)c4ccccc4)C(C)=C1C3(C)C)[C@]1(OC(C)=O)CO[C@@H]1C[C@@H]2O	< 0.005 µM (active)		0.00847 µM (active)	< 0.005 µM (active)	0.0902 µM (active)	0.0134 µM (active)	0.0369 µM (active)	< 0.005 µM (active)	< 0.005 µM (active)	0.0158 µM (active)	0.0107 µM (active)	8.32 µM (inactive)	< 0.005 µM (active)	< 0.005 µM (active)	> 50 µM (inactive)	< 0.005 µM (active)	0.135 µM (active)	< 0.005 µM (active)	0.173 µM (active)
O=C(Nc1ccc(C(F)(F)F)cc1[N+](=O)[O-])c1cccnc1	4.84 µM (inactive)	5.71 µM (inactive)	6.75 µM (inactive)	6.53 µM (inactive)	18.3 µM (inactive)	6.35 µM (inactive)	10.7 µM (inactive)	> 100 µM (inactive)	4.06 µM (inactive)	0.537 µM (active)	4.07 µM (inactive)	8.85 µM (inactive)	2.04 µM (inactive)	1.01 µM (active)	0.386 µM (active)	3.72 µM (inactive)	4.42 µM (inactive)	3.15 µM (inactive)	5.46 µM (inactive)
N#Cc1sc2c(c1OC(=O)c1ccc(C(F)(F)F)cc1)c(=O)n(-c1ccccc1)c(=S)n2-c1ccccc1	21.6 µM (inactive)	42.7 µM (inactive)	23.3 µM (inactive)	26.2 µM (inactive)	26.7 µM (inactive)	38.5 µM (inactive)	32.1 µM (inactive)	34.5 µM (inactive)	24.9 µM (inactive)	26.5 µM (inactive)	33 µM (inactive)		25.2 µM (inactive)	0.0481 µM (active)	33.8 µM (inactive)	21 µM (inactive)	25.6 µM (inactive)	30.3 µM (inactive)	27.6 µM (inactive)
CCOC(=O)c1cc(Br)c(-c2cc(C)co2)[nH]1	> 100 µM (inactive)	> 100 µM (inactive)	> 100 µM (inactive)	84.5 µM (inactive)	> 100 µM (inactive)	> 100 µM (inactive)	> 100 µM (inactive)	> 100 µM (inactive)	81.3 µM (inactive)	32.9 µM (inactive)	> 100 µM (inactive)	66.7 µM (inactive)	> 100 µM (inactive)	31.8 µM (inactive)	> 100 µM (inactive)	55.7 µM (inactive)	> 100 µM (inactive)	> 100 µM (inactive)	
CC(=O)Oc1c2c(c(CC=C(C)C)c3c1C(=O)C1=C[C@@H]4CC5C(C)(C)OC(C/C=C(/C)C(=O)O)(C4=O)[C@@]15O3)OC(C)(CCC=C(C)C)C=C2 (stereo partly drawn)	0.195 µM (active)	0.384 µM (active)	0.188 µM (active)	0.337 µM (active)	0.65 µM (active)	0.585 µM (active)	0.0989 µM (active)	0.12 µM (active)	0.378 µM (active)	0.161 µM (active)	0.408 µM (active)	0.173 µM (active)	0.19 µM (active)	0.258 µM (active)	0.188 µM (active)	0.0408 µM (active)	0.454 µM (active)	0.486 µM (active)	0.134 µM (active)
O=C1c2cccc3cc([N+](=O)[O-])cc(c23)C(=O)N1Nc1ccc([N+](=O)[O-])cc1[N+](=O)[O-]	11.5 µM (inactive)	13.3 µM (inactive)	16.3 µM (inactive)	> 31.6 µM (inactive)	18.4 µM (inactive)	> 31.6 µM (inactive)	13.6 µM (inactive)	16.4 µM (inactive)	13 µM (inactive)	20.2 µM (inactive)	21.7 µM (inactive)	12.1 µM (inactive)	12.9 µM (inactive)	2.64 µM (inactive)	11.9 µM (inactive)	4.23 µM (inactive)	27 µM (inactive)	7.41 µM (inactive)	31.8 µM (inactive)
COc1ccc2nc3cc(Cl)ccc3c(NCCCN(C)CCCNc3ccc4ncn5c6ccccc6c(=O)c3c45)c2c1	0.0391 µM (active)	0.973 µM (active)	0.0321 µM (active)	3.99 µM (inactive)	4.22 µM (inactive)	2.72 µM (inactive)	0.0333 µM (active)	4.15 µM (inactive)	0.366 µM (active)	0.183 µM (active)	0.246 µM (active)	0.488 µM (active)	0.0025 µM (active)	0.019 µM (active)	2.61 µM (inactive)	0.0226 µM (active)	0.169 µM (active)	0.0157 µM (active)	0.148 µM (active)
CCOc1cc(NC(C)=O)ccc1C(=O)N/N=C/c1ccco1	44.6 µM (inactive)	> 100 µM (inactive)		> 100 µM (inactive)	62.8 µM (inactive)	> 100 µM (inactive)	> 100 µM (inactive)	> 100 µM (inactive)	> 100 µM (inactive)	> 100 µM (inactive)	> 100 µM (inactive)		> 100 µM (inactive)	9.95 µM (inactive)	> 100 µM (inactive)	27.9 µM (inactive)	> 100 µM (inactive)	24.5 µM (inactive)	> 100 µM (inactive)
O=C(Cc1ccccc1F)NC1=C(Cl)C(=O)c2ccccc2C1=O	3.23 µM (inactive)		2.51 µM (inactive)	0.656 µM (active)	4.69 µM (inactive)	3.04 µM (inactive)	3.09 µM (inactive)	1.87 µM (inactive)	1.06 µM (active)	2.77 µM (inactive)		0.723 µM (active)	5.75 µM (inactive)	0.578 µM (active)	0.822 µM (active)	0.31 µM (active)	2.85 µM (inactive)	1.38 µM (inactive)	2.4 µM (inactive)
